Results on two compounds are retold here after US20030051262A1, “Animal models for neurodegenerative disease” (priority 1999, published 2003).

Series [1] relates to medial septum/vertical limb of the diagonal band (S/DB). The experiment in a line: Histology of septal region after injection into S/DB. To be noted: for histological appearance of the septal area: 2 μl of 33 mM into S/DB, Example 2. It is filed as in vivo, rat. How it is done: (§1) The experimental group (n=6 rats) received an injection of AChE peptide into the medial septum/vertical limb of the diagonal band (S/DB). Control rats (n=6 rats) received an equal amount of the vehicle, water, in the same way, while another group (n=5 rats) received an injection of the reference neurotoxin NMDA at an equivalent dose to that of AChE peptide (2 μl of 33 mM). Each injection was given slowly over 15 minutes through a 34 gauge stainless steel injection needle coupled by polyethylene tubing to a 10 μl Hamilton syringe. Co-ordinates used on the stereotaxic instrument (Kopf) were 0.7 mm anterior to bregma, 1.0 mm lateral to midline and 6.5 mm from skull surface at bregma. The incisor bar was set at −0.5 mm for all rats, resulting in approximately a level skull surface between the bregma and lambda sutures. The arm of the stereotaxic instrument was angled at 10 degrees to vertical to avoid damage to the sagittal sinus.
After a final weighing, rats were killed by stunning followed by decapitation. The hippocampus and cingulate/secondary motor cortex were rapidly removed and stored frozen at −80 degrees Celsius. The block of brain anterior to the hippocampus was placed in 30% sucrose formalin and left to fix for at least a week prior to sectioning on a microtome and staining with cresyl violet. Microscopical brain examination was subsequently performed as in earlier experiments.
Wistar rats were anaesthetised and injected as described in Example 2, with one of the following. AChE peptide, the equivalent peptide from BuChE, a scrambled version of the AChE peptide: HSWRAEVFHKYWSM, NMDA and water as a control. The number of rats in each group was between four and five.
Brain examination was performed as described in Example 2.

Series [2] in a line: Post-operative body weight after injection into S/DB. The series is classed as in vivo, rat. To be noted: 2 μl of 33 mM into S/DB, Wistar rats, weighed daily. On the procedure: as §1
Post-operatively the rats were weighed every day. Approximately two weeks after operation they were again food restricted and tested for performance on the T-maze.

Series [3] is described as follows: Body weight and condition after high-dose hippocampal injection. The series is classed as in vivo, rat. To be noted: higher dose (68 mM, 1 μl) into hippocampus, one of two rats, 5 days after surgery. How it is done:
(§2) Since the concentration of NMDA used to produce experimental neural destruction (as a tool in experimental psychology to examine the function of a particular brain region) is much higher (typically 68 mM) a small number of rats were injected with this larger amount, in a volume of 1 μl, in comparison with an equivalent amount of AChE peptide.
One of the two rats given AChE peptide at this higher dose looked very sick 5 days after the surgery and was therefore deeply anaesthetised and the brain prepared for microscopy. […] The other rat survived 11 days until it was finally anaesthetised, but it too lost some weight. This supported informal observations from the earlier, low dose experiment that AChE peptide treated rats might lose more weight than is normal after such surgery.

For series [4], the system named is rat hippocampus. The experiment in a line: Direct injection into rat hippocampus, histological effects (length of hippocampal cell layers destroyed). The series is classed as in vivo. To be noted: for extent of hippocampal damage: 68 mM in a volume of 1 μl into hippocampus. How it is done: AChE peptide was injected into rat hippocampus and subsequently the brains were examined under a light microscope. The hippocampus was-chosen as the most suitable brain structure in which to show effects of AChE peptide as it is very vulnerable to neurotoxins and damage from other causes such as ischaemia. Post mortem histological. examination or pre mortem brain scans reveal prominent decay of the hippocampus in Alzheimer brains.
Male Wistar or Dark Agouti (DA) rats were anaesthetised with Avertin and injected with 0.5 μl of 2 mM AChE peptide (DA rats received 1 μl of 1 mM) in the right hippocampus. An equivalent control injection was made in the left hippocampus. After recovery from the anaesthetic and a few days in their home cages rats were deeply anaesthetised and transcardially perfused with formalin preservative, the brains removed and prepared for microscopical examination. Sections of 50 μm were cut on a sliding microtome and stained with cresyl violet to show the nerve cells. The amount of neural damage was estimated by counting the length of hippocampal cell layers destroyed (quantified in terms of microscope graticule units).
A small number of injections were made into the hippocampus of DA rats with the reference neurotoxin NMDA (N-methyl D-aspartic acid) at an equivalent concentration to that of AChE peptide used above (1 μl of 1 mM).
as §2

Series [5] relates to mice. The experiment in a line: Injection of AChE peptide into mice. The series is classed as in vivo.
The subject of series [6] is medial septum/vertical limb of the diagonal band (S/DB). The experiment in a line: Locomotor activity cages after injection into S/DB. The series is classed as in vivo, rat. To be noted: 2 μl of 33 mM into S/DB, two successive days. How it is done:
as §1
After completion of T-maze testing rats were returned to a free feeding regimen before being tested on two successive days in standard locomotor activity cages. Each cage was equipped with two infrared beams to detect movement.

Series [7] has the same test system. The experiment in a line: Delayed non-matching to sample (DNMS) T-maze task after injection into S/DB. It is filed as in vivo, rat. To be noted: 2 μl of 33 mM into S/DB. The source says:
Wistar rats (175-200 g) were received from the suppliers (Harlan UK) and acclimated to the laboratory for three weeks before being trained on a delayed non-matching to sample (DNMS) task on an elevated wooden T-maze. In this task they are mildly food deprived and receive food pellets with enhanced flavour and nutritional content as rewards.
The DNMS task capitalises on the rat's innate tendency to alternate which cross arm of the T-maze it runs along; this derives from its normal foraging behaviour, where returning to a place from which it has recently eaten all the food is unlikely to pay dividends.
Each rat is placed at the start of the stem of the T-maze and allowed to run to retrieve a food pellet at the end of one cross arm. Access to the other cross arm is blocked. This block is then removed and the rat returned to the start. Normal rats choose to go to the opposite arm to that recently visited on this free choice part of the trial. After being allowed to consume their reward (if a correct choice was made) they are returned to their home cage and their cagemate is then tested in the same way. Typically a squad of ten rats is run in a “round robin’ fashion, so up to fifteen minutes intervenes between one trial and the next. Normal rats excel at this task once initial training (chiefly to familiarise them with the new smells on the maze and the elevated position off the floor) is complete.
The rats in the present experiment were given forty trials on the T-maze, then divided into groups matched for performance (all were above 90% correct). They were returned to unlimited food for a few days before undergoing surgery under Avertin anaesthesia.
The experimental group (n=6 rats) received an injection of AChE peptide into the medial septum/vertical limb of the diagonal band (S/DB). Control rats (n=6 rats) received an equal amount of the vehicle, water, in the same way, while another group (n=5 rats) received an injection of the reference neurotoxin NMDA at an equivalent dose to that of AChE peptide (2 μl of 33 mM). […]

Series [8] has as its system choline acetyltransferase. Kind of series: Cortical choline acetyltransferase (ChAT) level after NBM lesion. It is filed as in vivo, rat. To be noted: bilateral 2 μl of 16.5 mM into NBM. How it is done: After a period of post-operative testing, the rats were terminally anaesthetised and perfused intracardially with ice cold saline. The brain was removed and a portion of cortex (including the frontal, parietal and temporal areas, but excluding visual and cingulate cortex) was removed from each hemisphere and frozen. The remaining brain was preserved in formalin and subsequently coronally sectioned and stained with cresyl violet. The position and extent of the lesions was then determined by microscopical examination.
The frozen cortical tissue was used to determine the effectiveness of the NBM lesion. Using the method of Fonnum (J. Neurochem. (1975) 24, 407-409), the levels of the acetylcholine synthesising enzyme, choline acetyltransferase, (ChAT) were measured.
Since a proportion of this enzyme is due to the cholinergic innervation from the NBM, a decrease of ChAT would corroborate visualisation of a lesion at the site of injection in the NBM itself.

Series [9] relates to nucleus basalis of Meynert (NBM). Kind of series: Serial choice reaction task (attention) after injection into NBM. The series is classed as in vivo, rat. To be noted: bilateral 2 μl of 16.5 mM into NBM, light stimulus 1.0 s. On the procedure:
Testing for loss of cognitive function reminiscent of loss of such function associated with Alzheimer's Disease in humans was carried out using a serial choice reaction task, a preferred form of task for testing for attentional deficits, as described by Higgs et al. (Higgs, S., Deacon, R. M. J. & Rawlins, J. N. P., European Journal of Neuroscience (2000)12, 1781-1788).
A rat testing cubicle with a retractable lever on the front wall was employed as illustrated in FIG. 11. The back wall was concave with three food magazines, one in each corner and one in the centre. A light was present within each corner magazine. Magazine entries were recorded by microswitches attached to panels covering the entrances. The entire apparatus was computer-controlled.
Rats are trained to press the lever when it is presented. […] The rat will find a reward (a 45 mg food pellet) respectively in the left, right or centre magazine tray.
A cohort of rats were trained on the attentional task (light stimulus duration 1.0 s). When performance was stable, they were divided into three matched groups, each with seven or more rats. Under deep anaesthesia, each rat was placed in a stereotaxic frame, with the incisor bar set at −3 mm to give a level head. Bilateral-injections, each of 2 μl, were made into the NBM area (see FIG. 13). The control group of rats received injections of water. […]

Peptide text beside a SMILES is read from it.

For `CSCC[C@H](NC(=O)[C@H](Cc1ccc(O)cc1)NC(=O)[C@H](CO)NC(=O)[C@H](CO)NC(=O)[C@H](Cc1c[nH]c2ccccc12)NC(=O)[C@H](CCCNC(=N)N)NC(=O)[C@H](Cc1c[nH]cn1)NC(=O)[C@H](Cc1ccccc1)NC(=O)[C@H](CCC(=O)O)NC(=O)[C@H](C)N)C(=O)N[C@H](C(=O)N[C@@H](Cc1c[nH]cn1)C(=O)N[C@@H](Cc1c[nH]c2ccccc12)C(=O)N[C@@H](CCCCN)C(=O)O)C(C)C` [AChE peptide, AEFHRWSSYMVHWK] (H-AEFHRWSSYMVHWK-OH), in [1], the “histological appearance of the septal area” value is given as “striking damage”. Besides, the “tissue loss in the medial septal region” value in series [1] (Example 3, Wistar rats injected as in Example 2) is “Significant tissue loss”. The “lesion size relative to NMDA” value in series [1] (S/DB region) is given as “an order of magnitude larger”. Besides, in series [1] (S/DB region, time course by MRI), the “time for lesion to form after introduction into S/DB” value is recorded as “less than an hour”. The “post-operative weight loss and recovery” value in series [2] is “statistically significantly slower than either controls or NMDA rats to recover their weight”. Also, the “body weight after surgery” value in [3] is given as “Severe body weight loss”. The “extent of hippocampal damage” value in series [4] is given as “local hippocampal damage”. Further, in series [4] (Wistar rats, 0.5 μl of 2 mM in right hippocampus, P=0.008 vs control side), the “mean units of damage (length of hippocampal cell layers destroyed)” value is 155.3 units. In series [4] (most symmetrically injected DA rat, 1 μl of 1 mM in right hippocampus), the “units of damage (length of hippocampal cell layers destroyed, microscope graticule units)” value came to 119 units. Also, the “neurotoxic effects in mice” value in series [5] is “Neurotoxic effects have also been observed”.
Take `CN[C@H](CC(=O)O)C(=O)O` [NMDA, N-methyl D-aspartic acid]: the “histological appearance of the septal area” value in [1] is “only small effects”. In [6], the “locomotor activity (ANOVA, group effect)” value is on record as “not significantly different”. For the same compound, the “post-operative weight loss and recovery” value in [2] is on record as “lost more weight than controls”. Moreover, the “T-maze performance in subsequent trials” value in series [7] (after first block of ten trials) is “returned to control levels”. Also, in [7] (delay about 45 s), the “T-maze performance with 45 second delay between sample and choice” value was “non-significant decrease”. Besides, the “T-maze performance, twenty massed trials” value in [7] (massed trials) is “little effect”. The “extent of hippocampal damage” value in series [4] is “more widespread”. Moreover, the “histological examination of hippocampal brain sections” value in series [4] (DA rats, 1 μl of 1 mM into hippocampus) is on record as “small areas of neural damage”. In series [8], the “cholinergic loss in the cortex as measured by HPLC ChAT level” value is given as 12.1%. Besides, in series [9], the “proportion of correct lever-light trials” value is listed as “didn't produce a significant reduction”.
